From patent US20080014186A1, “Hla-A24 or Hla-A2 Binding Peptides of Parathyroid Hormone-Related Protein” (GREEN PEPTIDE CO., LTD., priority 2004, published 2008)

Tests used:
[1] = tested on: PBMCs of HLA-A2^+ healthy donors and prostate cancer patients; assay: Assay for peptide-specific CTLs in PBMCs (IFN-γ ELISA, peptide-pulsed T2 cells); format: cell-based, human; conditions: for INF-γ production: T2 cells
[2] = tested on: IgG in plasma of HLA-A2^+ healthy donors and prostate cancer patients; assay: Peptide-specific IgG in plasma by ELISA (HLA-A2-binding PTHrP peptides); parameters: species or system human; conditions: for IgG reactive to the peptide in plasma (difference of OD): 1:100-diluted plasma
Method: Peptide-specific IgG levels in the plasma were measured by ELISA, as previously reported. In brief, peptide (20 μg/well)-immobilized plates were blocked with Block Ace (Yukijirushi, Tokyo, Japan) and washed with 0.05% Tween20-PBS, after which 100 μl/well of plasma sample diluted with 0.05% Tween20-Block Ace was added to the plate. After 2 hours incubation at 37° C., the plates were washed and further incubated for 2 hours with a 1:1000-diluted rabbit anti-human IgG (γ-chain-specific) (DAKO, Glostrup, Denmark). The plates were washed, and then 100 μl of 1:100-diluted goat anti-rabbit IgG-conjugated horseradish peroxidase (EnVision, DAKO) was added to each well, and the plates were then incubated at room temperature for 40 min. After the plates were washed once, 100 μl/well of tetramethyl benzidine substrate solution (KPL, Guildford, UK) was added, and the reaction was stopped by the addition of 1 M phosphoric acid. The values are shown as optical density (OD) units/ml, and responses to the HIV peptide were subtracted. IgG reactive to a corresponding PTHrP peptide was judged to be positive when the difference of the OD in 1:100-diluted plasma exceeded 0.05. The results that IgG reactive to either the PTHrP102-111 or the […] peptide was detected in 8 of 10 healthy donors and in 7 of 10 prostate cancers are shown in Table 2 hereinafter.
In a similar way to Example 3, it was examined whether IgGs reactive to peptides of PTHrP 42-51 and PTHrP 59-67 could be detected in the plasma of 10 healthy donors and 10 cancer patients. The cut-off value at 1:100-diluted plasma was ODO.054.

YLTQETNKV [PTHrP 103-111]
INF-γ production ([1]; HLA-A2^+ healthy donor #1 (A0201)): 34 pg/mL | INF-γ production ([1]; HLA-A2^+ healthy donor #2 (A0201)): 217 pg/mL | INF-γ production ([1]; HLA-A2^+ healthy donor #3 (A0201)): 9 pg/mL | INF-γ production ([1]; HLA-A2^+ healthy donor #4 (A0201)): 0 pg/mL | INF-γ production ([1]; HLA-A2^+ healthy donor #5 (A0206)): 0 pg/mL | INF-γ production ([1]; HLA-A2^+ healthy donor #6 (A0206)): 0 pg/mL | INF-γ production ([1]; HLA-A2^+ healthy donor #7 (A0206)): 0 pg/mL | INF-γ production ([1]; HLA-A2^+ healthy donor #8 (A0206)): 0 pg/mL | INF-γ production ([1]; HLA-A2^+ healthy donor #9 (A0206)): 0 pg/mL | INF-γ production ([1]; HLA-A2^+ healthy donor #10 (A0207)): 0 pg/mL | Total (donors with significant peptide-specific IFN-γ production / donors tested) ([1]; HLA-A2^+ healthy donors, p < 0.05): 1/10 | INF-γ production ([1]; HLA-A2^+ prostate cancer patient #1 (A0206)): 144 pg/mL | INF-γ production ([1]; HLA-A2^+ prostate cancer patient #2 (A0210)): 41 pg/mL | INF-γ production ([1]; HLA-A2^+ prostate cancer patient #3 (A0210)): 57 pg/mL | INF-γ production ([1]; HLA-A2^+ prostate cancer patient #4 (A0206)): 86 pg/mL | INF-γ production ([1]; HLA-A2^+ prostate cancer patient #5 (A0206)): 0 pg/mL | INF-γ production ([1]; HLA-A2^+ prostate cancer patient #6 (A0207)): 68 pg/mL | INF-γ production ([1]; HLA-A2^+ prostate cancer patient #7 (A0206)): 49 pg/mL | INF-γ production ([1]; HLA-A2^+ prostate cancer patient #8 (A0206)): 29 pg/mL | INF-γ production ([1]; HLA-A2^+ prostate cancer patient #9 (A0201)): 56 pg/mL | INF-γ production ([1]; HLA-A2^+ prostate cancer patient #10 (A0201)): 0 pg/mL | Total (patients with significant peptide-specific IFN-γ production / patients tested) ([1]; HLA-A2^+ prostate cancer patients, p < 0.05): 1/10 | IgG reactive to the peptide in plasma (difference of OD) ([2]; HLA-A2^+ healthy donor #1): 0.0745 OD | IgG reactive to the peptide in plasma (difference of OD) ([2]; HLA-A2^+ healthy donor #2): 0.092 OD | IgG reactive to the peptide in plasma (difference of OD) ([2]; HLA-A2^+ healthy donor #3): — (IgG reactive to a corresponding peptide was judged to be positive when a difference of OD in a 1:100-diluted plasma was more than 0.054.) | IgG reactive to the peptide in plasma (difference of OD) ([2]; HLA-A2^+ healthy donor #4): 0.128 OD | IgG reactive to the peptide in plasma (difference of OD) ([2]; HLA-A2^+ healthy donor #5): 0.0575 OD | IgG reactive to the peptide in plasma (difference of OD) ([2]; HLA-A2^+ healthy donor #6): — (IgG reactive to a corresponding peptide was judged to be positive when a difference of OD in a 1:100-diluted plasma was more than 0.054.) | IgG reactive to the peptide in plasma (difference of OD) ([2]; HLA-A2^+ healthy donor #7): — (IgG reactive to a corresponding peptide was judged to be positive when a difference of OD in a 1:100-diluted plasma was more than 0.054.) | IgG reactive to the peptide in plasma (difference of OD) ([2]; HLA-A2^+ healthy donor #8): 0.0585 OD | IgG reactive to the peptide in plasma (difference of OD) ([2]; HLA-A2^+ healthy donor #9): — (IgG reactive to a corresponding peptide was judged to be positive when a difference of OD in a 1:100-diluted plasma was more than 0.054.) | IgG reactive to the peptide in plasma (difference of OD) ([2]; HLA-A2^+ healthy donor #10): — (IgG reactive to a corresponding peptide was judged to be positive when a difference of OD in a 1:100-diluted plasma was more than 0.054.) | Total (IgG-positive donors / donors tested) ([2]; HLA-A2^+ healthy donors): 5/10 | IgG reactive to the peptide in plasma (difference of OD) ([2]; HLA-A2^+ prostate cancer patient #1): — (IgG reactive to a corresponding peptide was judged to be positive when a difference of OD in a 1:100-diluted plasma was more than 0.054.) | IgG reactive to the peptide in plasma (difference of OD) ([2]; HLA-A2^+ prostate cancer patient #2): — (IgG reactive to a corresponding peptide was judged to be positive when a difference of OD in a 1:100-diluted plasma was more than 0.054.) | IgG reactive to the peptide in plasma (difference of OD) ([2]; HLA-A2^+ prostate cancer patient #3): — (IgG reactive to a corresponding peptide was judged to be positive when a difference of OD in a 1:100-diluted plasma was more than 0.054.) | IgG reactive to the peptide in plasma (difference of OD) ([2]; HLA-A2^+ prostate cancer patient #4): — (IgG reactive to a corresponding peptide was judged to be positive when a difference of OD in a 1:100-diluted plasma was more than 0.054.) | IgG reactive to the peptide in plasma (difference of OD) ([2]; HLA-A2^+ prostate cancer patient #5): — (IgG reactive to a corresponding peptide was judged to be positive when a difference of OD in a 1:100-diluted plasma was more than 0.054.) | IgG reactive to the peptide in plasma (difference of OD) ([2]; HLA-A2^+ prostate cancer patient #6): — (IgG reactive to a corresponding peptide was judged to be positive when a difference of OD in a 1:100-diluted plasma was more than 0.054.) | IgG reactive to the peptide in plasma (difference of OD) ([2]; HLA-A2^+ prostate cancer patient #7): 0.0655 OD | IgG reactive to the peptide in plasma (difference of OD) ([2]; HLA-A2^+ prostate cancer patient #8): — (IgG reactive to a corresponding peptide was judged to be positive when a difference of OD in a 1:100-diluted plasma was more than 0.054.) | IgG reactive to the peptide in plasma (difference of OD) ([2]; HLA-A2^+ prostate cancer patient #9): — (IgG reactive to a corresponding peptide was judged to be positive when a difference of OD in a 1:100-diluted plasma was more than 0.054.) | IgG reactive to the peptide in plasma (difference of OD) ([2]; HLA-A2^+ prostate cancer patient #10): 0.112 OD | Total (IgG-positive patients / patients tested) ([2]; HLA-A2^+ prostate cancer patients): 2/10
